One experiment deals with human WT S1P5 receptor (Homo sapiens, UniProt Q9H228). Description: BRET-based cAMP (EPAC biosensor) Gi signaling assay, WT S1P5. To be noted: WT, Suppl. Fig. 6e. On the technique in general: Bioluminescence resonance energy transfer reports proximity on the nanometre scale.
Another experiment deals with human S1P5 V115A mutant (Homo sapiens, UniProt Q9H228, V115A). In words: BRET-based cAMP Gi signaling assay, S1P5 V115A. Particulars: V115A, Suppl. Fig. 6e.
In the next experiment the target is human S1P5 T79A mutant (Homo sapiens, UniProt Q9H228, T79A). Description: BRET-based cAMP Gi signaling assay, S1P5 T79A. To be noted: T79A, Suppl. Fig. 6c.

We go through 1 molecule from publication PMC9374744, “Structural basis for receptor selectivity and inverse agonism in S1P5 receptors” (Nature Communications, 2022).

Several values for one entry are separate records, joined by “and”; a condition that tells them apart may be missing. Equal values may be shown once.

Chain of human WT S1P5 receptor (Q9H228 whole entry): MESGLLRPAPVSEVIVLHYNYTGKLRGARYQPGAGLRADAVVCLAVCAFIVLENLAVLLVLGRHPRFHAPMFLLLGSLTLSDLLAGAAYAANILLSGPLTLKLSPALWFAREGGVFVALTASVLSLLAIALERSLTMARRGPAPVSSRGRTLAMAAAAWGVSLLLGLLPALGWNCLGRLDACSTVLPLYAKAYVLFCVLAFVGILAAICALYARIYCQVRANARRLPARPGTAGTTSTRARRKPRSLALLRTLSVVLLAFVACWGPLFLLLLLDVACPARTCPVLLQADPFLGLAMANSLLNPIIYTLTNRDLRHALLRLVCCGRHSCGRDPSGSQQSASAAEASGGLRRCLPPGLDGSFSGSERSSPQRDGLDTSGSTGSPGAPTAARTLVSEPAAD
Chain of human S1P5 T79A mutant (Q9H228 whole entry T79A): as the sequence (Q9H228 whole entry) above, with T79A counted along it
Chain of human S1P5 V115A mutant (Q9H228 whole entry V115A): as the sequence (Q9H228 whole entry) above, with V115A counted along it

For `CCCCCCCCCCCCC/C=C/[C@@H](O)[C@@H](N)COP(=O)(O)O` [S1P, sphingosine-1-phosphate], the “BRET signal, raw replicate readings” value is 0.7239 and 0.7229 and 0.7227 and 0.7322 and 0.7297 and 0.7339 and 0.7264 and 0.7321 and 0.7345 at human WT S1P5 receptor (S1P 0.685185 nM); 0.7237 and 0.7264 and 0.7244 and 0.734 and 0.7307 and 0.7332 and 0.7317 and 0.7311 and 0.7362 at human WT S1P5 receptor (S1P 2.05556 nM); 0.7266 and 0.7231 and 0.7269 and 0.7291 and 0.734 and 0.731 and 0.7324 and 0.7315 and 0.7331 on human WT S1P5 receptor (S1P 6.16667 nM); 0.7325 and 0.7286 and 0.7291 and 0.731 and 0.733 and 0.7374 (2×) and 0.7372 and 0.7364 on human WT S1P5 receptor (S1P 18.5 nM); 0.7419 and 0.743 and 0.7446 and 0.7524 and 0.7535 and 0.7545 and 0.7491 and 0.7497 (2×) on human WT S1P5 receptor (S1P 55.5 nM); 0.7589 and 0.7571 and 0.7588 and 0.7688 and 0.7682 and 0.766 and 0.76 and 0.7599 and 0.7596 on human WT S1P5 receptor (S1P 185 nM). For the same molecule, the “BRET signal, raw replicate readings” value was 0.7647 and 0.7661 and 0.7611 and 0.7735 and 0.7751 and 0.7748 and 0.7643 and 0.7625 and 0.7654 at human WT S1P5 receptor (S1P 781.25 nM); 0.7721 and 0.769 and 0.7694 and 0.7819 and 0.7829 and 0.7848 and 0.7658 and 0.7706 and 0.7596 at human WT S1P5 receptor (S1P 3125 nM); 0.7775 and 0.7718 and 0.7733 and 0.7869 and 0.7878 and 0.7756 and 0.7691 and 0.7737 and 0.7605 on human WT S1P5 receptor (S1P 12500 nM); 0.7765 and 0.7709 and 0.7762 and 0.7879 and 0.7898 and 0.785 and 0.7721 and 0.7678 and 0.7681 on human WT S1P5 receptor (S1P 25000 nM); 0.7675 at human S1P5 V115A mutant (S1P 12500 nM); 0.7654 and 0.7708 and 0.7701 and 0.7667 and 0.7652 and 0.763 and 0.7734 and 0.7704 and 0.7743 at human S1P5 V115A mutant (S1P 25000 nM). In addition, the “BRET signal, raw replicates” value was 0.728 and 0.7297 and 0.7309 and 0.7306 and 0.7448 and 0.7165 and 0.733 and 0.732 and 0.7327 on human S1P5 T79A mutant ([S1P] 0.228395 nM); 0.7302 and 0.7321 and 0.7319 and 0.7287 and 0.7311 and 0.7348 and 0.7332 and 0.7318 and 0.7294 on human S1P5 T79A mutant ([S1P] 0.685185 nM); 0.7333 and 0.7313 and 0.7311 and 0.7385 and 0.7367 and 0.733 and 0.7328 and 0.7316 and 0.7345 at human S1P5 T79A mutant ([S1P] 2.05556 nM); 0.7337 and 0.7364 and 0.7232 and 0.7384 and 0.7383 and 0.7348 and 0.7304 and 0.7359 and 0.7321 on human S1P5 T79A mutant ([S1P] 6.16667 nM); 0.7347 (2×) and 0.7375 and 0.7387 and 0.7386 and 0.7311 and 0.7341 and 0.7354 and 0.7312 on human S1P5 T79A mutant ([S1P] 18.5 nM); 0.7438 and 0.7423 (2×) and 0.7417 and 0.7457 and 0.7434 and 0.7489 and 0.7415 and 0.7424 at human S1P5 T79A mutant ([S1P] 55.5 nM). In addition, the “BRET signal, raw replicates” value at human S1P5 T79A mutant ([S1P] 185 nM) was 0.7491 (2×) and 0.7494 and 0.7531 and 0.7514 and 0.7551 and 0.7506 and 0.752 and 0.7559; on human S1P5 T79A mutant ([S1P] 781.25 nM), 0.7686 and 0.7529 and 0.774 and 0.7668 (2×) and 0.7667 and 0.7673 and 0.7649 and 0.7637; on human S1P5 T79A mutant ([S1P] 3125 nM), 0.7697 and 0.7671 and 0.7674 and 0.7739 and 0.7792 and 0.7768 and 0.7709 (2×) and 0.7684; at human S1P5 T79A mutant ([S1P] 12500 nM), 0.7734 and 0.7682 and 0.7706 and 0.7812 and 0.7771 and 0.7806 and 0.7763 and 0.7799 and 0.7701.
